Data taken from ChEMBL document CHEMBL5523759, “Discovery of Novel HDAC3 Inhibitors with PD-L1 Downregulating/Degrading and Antitumor Immune Effects” (J Med Chem, 2024).
One block for each compound: values may come before it. Activity calls are given as the source filed them. The calls are words filed in the database; no cut-off is given here.

What was measured:
Jurkat = test: Antiproliferative activity against human Jurkat T cells assessed as reduction in cell viability measured for 48 hrs by CCK-8 assay; assay type: functional, cell-based
B16-F10 [1] = test: Antiproliferative activity against mouse B16-F10 cells assessed as reduction in cell viability measured for 48 hrs by MTT assay; assay type: functional, cell-based; details: B16-F10, 48 h
HepG2 = test: Antiproliferative activity against human HepG2 cells assessed as reduction in cell viability measured for 48 hrs by MTT assay; assay type: functional, cell-based; details: HepG2, 48 h
Histone deacetylase 1 = Histone deacetylase 1 (Homo sapiens, UniProt Q13547); test: Inhibition of human recombinant HDAC1 using Ac-Leu-Gly-Lys (Ac)-AMC as substrate preincubated with compound for 10 mins followed by substrate addition and measured after 45 mins by TECAN microtiter plate reader analysis
Sequence of Histone deacetylase 1 (Q13547 whole entry): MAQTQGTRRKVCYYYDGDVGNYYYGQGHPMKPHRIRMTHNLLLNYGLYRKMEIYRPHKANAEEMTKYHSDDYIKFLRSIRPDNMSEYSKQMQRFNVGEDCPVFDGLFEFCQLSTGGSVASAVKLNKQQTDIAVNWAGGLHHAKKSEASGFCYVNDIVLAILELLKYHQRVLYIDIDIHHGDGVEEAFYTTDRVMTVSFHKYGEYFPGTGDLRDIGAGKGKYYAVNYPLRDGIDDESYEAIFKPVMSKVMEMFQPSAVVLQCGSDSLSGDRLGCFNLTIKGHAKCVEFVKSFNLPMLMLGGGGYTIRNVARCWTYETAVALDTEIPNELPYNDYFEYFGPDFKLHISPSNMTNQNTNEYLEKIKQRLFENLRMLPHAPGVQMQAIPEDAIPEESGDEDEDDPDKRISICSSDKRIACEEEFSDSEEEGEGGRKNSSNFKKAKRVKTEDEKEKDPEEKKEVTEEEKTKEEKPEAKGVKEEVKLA

Histone deacetylase 3 = Histone deacetylase 3 (Homo sapiens, UniProt O15379); test: Inhibition of human recombinant HDAC3 using Ac-Leu-Gly-Lys (Ac)-AMC as substrate preincubated with compound for 10 mins followed by substrate addition and measured after 45 mins by TECAN microtiter plate reader analysis
Sequence of Histone deacetylase 3 (O15379 whole entry): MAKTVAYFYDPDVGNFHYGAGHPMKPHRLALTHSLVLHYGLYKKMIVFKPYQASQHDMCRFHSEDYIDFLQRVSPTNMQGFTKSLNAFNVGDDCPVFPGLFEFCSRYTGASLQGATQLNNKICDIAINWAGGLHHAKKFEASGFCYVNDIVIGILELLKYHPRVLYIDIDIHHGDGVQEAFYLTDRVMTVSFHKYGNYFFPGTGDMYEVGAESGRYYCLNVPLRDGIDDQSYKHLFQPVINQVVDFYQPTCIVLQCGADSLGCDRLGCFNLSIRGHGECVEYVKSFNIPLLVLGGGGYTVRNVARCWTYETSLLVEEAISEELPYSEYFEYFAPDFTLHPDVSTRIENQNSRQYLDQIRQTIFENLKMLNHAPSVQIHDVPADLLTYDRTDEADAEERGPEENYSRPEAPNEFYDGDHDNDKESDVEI

[2] = molecular target: T1, Protein deacetylase HDAC6 (Homo sapiens, UniProt Q9UBN7); test: Inhibition of human recombinant HDAC6 using Ac-Leu-Gly-Lys (Ac)-AMC as substrate preincubated with compound for 10 mins followed by substrate addition and measured after 45 mins by TECAN microtiter plate reader analysis
T1 sequence (Q9UBN7 whole entry): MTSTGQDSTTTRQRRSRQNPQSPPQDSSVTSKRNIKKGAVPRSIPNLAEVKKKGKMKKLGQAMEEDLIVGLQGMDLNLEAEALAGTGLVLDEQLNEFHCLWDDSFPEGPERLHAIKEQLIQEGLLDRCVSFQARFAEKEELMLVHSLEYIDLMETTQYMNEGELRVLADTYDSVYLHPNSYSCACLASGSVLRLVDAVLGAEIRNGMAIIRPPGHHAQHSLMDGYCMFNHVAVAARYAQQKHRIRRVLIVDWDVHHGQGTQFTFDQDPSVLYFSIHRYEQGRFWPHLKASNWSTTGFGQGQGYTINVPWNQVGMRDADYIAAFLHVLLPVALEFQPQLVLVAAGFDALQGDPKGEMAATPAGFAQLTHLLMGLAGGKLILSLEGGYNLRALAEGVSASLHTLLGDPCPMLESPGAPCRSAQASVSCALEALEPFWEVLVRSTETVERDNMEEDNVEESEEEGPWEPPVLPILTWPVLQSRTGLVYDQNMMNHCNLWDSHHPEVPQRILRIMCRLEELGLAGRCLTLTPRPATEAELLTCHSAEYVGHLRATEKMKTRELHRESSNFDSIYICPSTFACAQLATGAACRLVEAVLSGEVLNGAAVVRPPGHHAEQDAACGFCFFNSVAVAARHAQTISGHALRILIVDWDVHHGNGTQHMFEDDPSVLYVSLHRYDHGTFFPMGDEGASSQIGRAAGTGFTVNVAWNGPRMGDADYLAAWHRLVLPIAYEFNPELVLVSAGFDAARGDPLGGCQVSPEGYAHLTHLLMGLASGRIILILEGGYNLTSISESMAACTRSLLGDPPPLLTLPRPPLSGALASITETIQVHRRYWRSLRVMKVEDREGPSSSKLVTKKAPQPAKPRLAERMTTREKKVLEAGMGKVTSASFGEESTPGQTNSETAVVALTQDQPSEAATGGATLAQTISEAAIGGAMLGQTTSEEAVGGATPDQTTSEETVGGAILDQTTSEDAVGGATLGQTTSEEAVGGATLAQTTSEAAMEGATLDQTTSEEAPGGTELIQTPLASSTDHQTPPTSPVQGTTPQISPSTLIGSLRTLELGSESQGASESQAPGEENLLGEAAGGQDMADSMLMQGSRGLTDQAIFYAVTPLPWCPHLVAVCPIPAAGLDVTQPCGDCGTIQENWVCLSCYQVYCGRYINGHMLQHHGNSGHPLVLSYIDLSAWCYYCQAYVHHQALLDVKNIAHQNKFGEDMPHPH

Histone deacetylase 7 = molecular target: T2, Histone deacetylase 7 (Homo sapiens, UniProt Q8WUI4); test: Inhibition of human recombinant HDAC7 using Ac-Leu-Gly-Lys (Tfa)-AMC as substrate preincubated with compound for 10 mins followed by substrate addition and measured after 45 mins by TECAN microtiter plate reader analysis
T2 sequence (Q8WUI4 whole entry): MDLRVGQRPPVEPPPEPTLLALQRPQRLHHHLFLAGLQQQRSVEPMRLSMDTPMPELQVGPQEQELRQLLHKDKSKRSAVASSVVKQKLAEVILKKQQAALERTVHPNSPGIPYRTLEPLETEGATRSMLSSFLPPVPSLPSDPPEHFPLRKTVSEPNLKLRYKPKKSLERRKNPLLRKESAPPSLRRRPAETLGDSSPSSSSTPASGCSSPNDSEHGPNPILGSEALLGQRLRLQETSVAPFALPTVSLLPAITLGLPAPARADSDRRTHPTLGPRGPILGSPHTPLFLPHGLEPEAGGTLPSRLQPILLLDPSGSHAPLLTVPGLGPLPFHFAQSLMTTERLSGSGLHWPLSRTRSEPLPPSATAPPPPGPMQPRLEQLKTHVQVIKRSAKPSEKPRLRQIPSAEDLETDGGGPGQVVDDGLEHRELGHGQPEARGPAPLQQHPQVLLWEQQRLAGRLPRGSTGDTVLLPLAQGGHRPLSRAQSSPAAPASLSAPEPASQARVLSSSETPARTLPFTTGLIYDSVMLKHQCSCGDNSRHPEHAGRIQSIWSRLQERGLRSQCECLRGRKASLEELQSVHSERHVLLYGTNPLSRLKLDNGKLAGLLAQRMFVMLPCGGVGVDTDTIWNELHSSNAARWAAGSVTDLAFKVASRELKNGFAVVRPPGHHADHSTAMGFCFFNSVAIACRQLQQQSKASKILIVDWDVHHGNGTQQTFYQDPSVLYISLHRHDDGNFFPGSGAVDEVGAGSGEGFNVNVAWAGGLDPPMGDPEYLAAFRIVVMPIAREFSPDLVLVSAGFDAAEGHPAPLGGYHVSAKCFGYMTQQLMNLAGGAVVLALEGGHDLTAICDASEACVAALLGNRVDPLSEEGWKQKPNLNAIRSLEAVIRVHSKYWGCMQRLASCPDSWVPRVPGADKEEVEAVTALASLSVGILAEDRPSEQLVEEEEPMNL

Histone deacetylase 8 = molecular target: T3, Histone deacetylase 8 (Homo sapiens, UniProt Q9BY41); test: Inhibition of human recombinant HDAC8 using Ac-Leu-Gly-Lys (Tfa)-AMC as substrate preincubated with compound for 10 mins followed by substrate addition and measured after 45 mins by TECAN microtiter plate reader analysis
T3 sequence (Q9BY41 whole entry): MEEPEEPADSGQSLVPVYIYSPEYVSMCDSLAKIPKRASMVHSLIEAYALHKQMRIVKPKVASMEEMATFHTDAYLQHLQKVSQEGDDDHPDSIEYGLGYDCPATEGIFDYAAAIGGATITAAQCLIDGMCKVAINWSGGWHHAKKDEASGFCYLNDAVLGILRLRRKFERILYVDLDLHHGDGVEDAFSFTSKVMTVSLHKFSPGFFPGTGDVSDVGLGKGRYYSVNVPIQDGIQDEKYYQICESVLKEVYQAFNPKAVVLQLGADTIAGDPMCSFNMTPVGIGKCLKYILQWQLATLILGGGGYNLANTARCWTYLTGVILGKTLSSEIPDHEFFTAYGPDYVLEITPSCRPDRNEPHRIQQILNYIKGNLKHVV

HCT-116 = test: cells; details: Homo sapiens, HCT-116, 48 h
Description: Antiproliferative activity against human HCT-116 cells assessed as reduction in cell viability measured for 48 hrs by MTT assay

MCF7 = test: cells; details: Homo sapiens, MCF7, 48 h
Description: Antiproliferative activity against human MCF7 cells assessed as reduction in cell viability measured for 48 hrs by MTT assay

B16-F10 [3] = test: Antitumor activity against mouse B16-F10 cells implanted in C57BL/6 mouse model assessed as tumor growth inhibition at 25 mg/kg, IG administered for 9 days; assay type: functional; details: B16-F10, po, 216 h, time 9 day, read-out: TGI
B16-F10 [4] = test: Antitumor activity against mouse B16-F10 cells implanted in C57BL/6 mouse model assessed as upregulation of Ac-H3 expression at 25 mg/kg, po administered for 9 days by Western blot analysis; assay type: functional, organism-based; details: time 9.0 day
B16-F10 [5] = test: Antitumor activity against mouse B16-F10 cells implanted in C57BL/6 mouse model assessed as increase in Ac-H3 expression in tumor at 25 mg/kg, po administered for 9 days by Western blot analysis; assay type: functional, organism-based; details: time 9.0 day
B16-F10 [6] = test: Antitumor immunity against mouse B16-F10 cells implanted in C57BL/6 mouse model assessed as increase in CD3+ CD4+ T cells at 25 mg/kg, po administered for 9 days (reference value: 1.50%); assay type: functional; details: time 9 day
B16-F10 [7] = test: Antitumor immunity against mouse B16-F10 cells implanted in C57BL/6 mouse model assessed as increase in CD3+ CD8+ T cells at 25 mg/kg, po administered for 9 days (reference value: 1.01%); assay type: functional; details: time 9 day

Compound: Nc1ccccc1NC(=O)/C=C/c1ccc(-c2ncc(CNc3ccccc3)s2)cc1
- IC50 (Jurkat): 0.2 µM
- IC50 (B16-F10 [1]): 3.49 µM
- IC50 (HepG2): 0.9 µM
- IC50 (Histone deacetylase 1): 0.31 µM
- IC50 (Histone deacetylase 3): 0.11 µM
- IC50 [2]: 8.01 µM
- IC50 (Histone deacetylase 7): > 10 µM
- IC50 (Histone deacetylase 8): > 10 µM
- IC50 (HCT-116): 7.45 µM
- IC50 (MCF7): 4.9 µM

Compound: CCCNNC(=O)CCCCCCNC(=O)c1ncc(CNc2ccccc2)s1
- IC50 (Jurkat): 1.51 µM

Compound: Nc1ccccc1NC(=O)c1ccc(CNC(=O)c2ccc(-c3ncc(CNc4ccccc4)s3)cc2)cc1
- IC50 (Jurkat): 0.08 µM
- IC50 (B16-F10 [1]): 2.98 µM
- IC50 (HepG2): 0.37 µM
- IC50 (Histone deacetylase 1): 0.39 µM
- IC50 (Histone deacetylase 3): 0.14 µM
- IC50 [2]: 8.31 µM
- IC50 (Histone deacetylase 7): > 10 µM
- IC50 (Histone deacetylase 8): > 10 µM
- IC50 (HCT-116): 0.92 µM
- IC50 (MCF7): 4.24 µM

Compound: Nc1ccccc1NC(=O)c1ccc(CNC(=O)c2ncc(CNc3ccccc3)s2)cc1
- IC50 (Jurkat): 0.24 µM
- IC50 (B16-F10 [1]): 3.22 µM
- IC50 (HepG2): 0.51 µM
- IC50 (Histone deacetylase 1): 0.23 µM
- IC50 [2]: > 10 µM
- IC50 (Histone deacetylase 7): > 10 µM
- IC50 (Histone deacetylase 8): > 10 µM
- IC50 (HCT-116): 1.59 µM
- IC50 (MCF7): > 10 µM

Compound: Nc1ccccc1NC(=O)c1ccc(NC(=O)c2ncc(CNc3ccccc3)s2)cc1
- IC50 (Jurkat): 2.52 µM

Compound: Cc1c(COc2cc(OCc3cccc(C#N)c3)c(CNC(C)(C)C(=O)O)cc2Cl)cccc1-c1ccccc1
- inhibition in vivo at 25 mg/kg (B16-F10 [3]): 67%
- Activity (B16-F10 [4]): inactive
- Activity (B16-F10 [5]): inactive
- Activity (B16-F10 [6]): 3.58%
- Activity (B16-F10 [7]): 3.28%

Compound: Nc1ccccc1NC(=O)CCCCC(=O)Nc1ccc(-c2ncc(CNc3ccccc3)s2)cc1
- IC50 (Jurkat): 0.67 µM

Compound: CCCNNC(=O)c1ncc(CNc2ccccc2)s1
- IC50 (Jurkat): > 10 µM

Compound: Nc1ccccc1NC(=O)CNC(=O)c1ncc(CNc2ccccc2)s1
- IC50 (Jurkat): > 10 µM

Continued by falling IC50 (Jurkat), values first:

- IC50 (Jurkat): 5.15 µM
Compound: Nc1ccccc1NC(=O)CCNC(=O)c1ncc(CNc2ccccc2)s1

- IC50 (Jurkat): 4.88 µM
Compound: CCCNNC(=O)CCCNC(=O)c1ncc(CNc2ccccc2)s1

- IC50 (Jurkat): 4.77 µM
Compound: CCCNNC(=O)CCNC(=O)c1ncc(CNc2ccccc2)s1

- IC50 (Jurkat): 1.02 µM
Compound: Nc1ccccc1NC(=O)CCCC(=O)Nc1ccc(-c2ncc(CNc3ccccc3)s2)cc1

- IC50 (Jurkat): 0.95 µM
Compound: Nc1ccccc1NC(=O)CCCCNC(=O)c1ncc(CNc2ccccc2)s1
